Patent US8778985B2, “Inhibiting amyloid-beta peptide/rage interaction at the blood-brain barrier” (The University of Rochester, priority 2006, dated 2014)

System: APPsw+/− mice
Experiment: Memory testing: novel object location and novel object recognition, chronic treatment of APPsw+/− mice
Assay type: in vivo
Conditions: 1 mg/kg per day i.p. for two months from 8 months of age
Method: (A) Percent increase in cerebral blood flow (CBF) in response to brain activation in mice treated with vehicle (open bar) or FPS2 (closed bar). (B-C) novel object location (B) and novel object recognition (C) expressed as percent exploratory preference in APPsw^+/− mice treated with vehicle (open bar) or FPS2 (closed bar). FPS2 (1 mg/kg per day) was intraperitoneally administered for two months beginning at the age of 8 months old mice. Values are means±s.e.m, n=5-6 per group.
APPsw^+/− mice were treated with FPS2 (1 mg/kg) or with vehicle daily by intraperitoneal injection for two months starting at 8 months old. At the end of the treatment period functional changes in cerebral blood flow (CBF) to brain activation, and memory tests were determined. Brain and plasma Aβ levels were also determined in FPS2 and vehicle treated mice. […]
Compounds were synthesized in parallel using semiautomated chemical reactions. […] Purity was assessed by reverse-phase gradient HPLC. […] After two months of treatment, (i) the cerebral blood flow response to brain activation (whisker stimulation) was measured and (ii) behavioral tests including operant learning, novel object location (NOL), and novel object recognition (NOR) were performed. After these functional tests, the mice were sacrificed and their brains analyzed for Aβ40, Aβ42, and amyloid levels. • CBF response to brain activation. […]

Q: What does the source list for `CC(CC(=O)NCCCN(C(=O)c1cc([N+](=O)[O-])cc([N+](=O)[O-])c1)c1ccccc1)CC(C)(C)C` (centres unmarked) [FPS2, 3,5-dinitro-N-phenyl-N-[3-[(3,5,5-trimethyl-1-oxohexyl)amino]propyl]-(9Cl)-benzamide]?
A: memory, novel object location: significantly increased; memory, novel object recognition: significantly increased
